Measured values from patent US10183936B2, “Hepatitis B core protein allosteric modulators” (priority 2014, dated 2019).

Assays:
[1] = test system: AD38 cells; test: Viability of AD38 cells (Promega CellTiter-Glo) at the end of compound treatment; format: cell-based; conditions: 10 μM compound, 6 days, luminescence normalized against DMSO control wells (controls being 100%)
Summary of the method: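 AD38 cells seeded at 50,000/well received compound from a 10× solution in 10% DMSO and were incubated 6 days at 37° C. Viability was then read by CellTiter-Glo luminescence in tetracycline-free medium with 2% FBS and 1% DMSO, normalized to DMSO control wells (100%) and reported as percent viability.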

[2] = test system: HBV viral production in AD38 cells; test: Viral load production in AD38 cells by quantitative PCR of the HBV core sequence in supernatant; format: cell-based; conditions: 10 μM compound, 6 days at 37° C., viral load in supernatant compared against DMSO control wells; for activity at 10 µM: Hepatitis B virus, 144 h, read-out: AD38 Viral Load (CpAM/DMSO %) at 10 μM
Summary of the method: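 AD38 cells seeded at 50,000/well, treated 6 days at 37° C with compound added as 10× solution in 10% DMSO. HBV core sequence in clarified supernatant quantified by TaqMan qPCR against known standards; viral load compared with DMSO control wells.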

Row | Structure (SMILES) | AD38 Viability Normalized Result (CPAM/DMSO %) at 10 μM [1] | activity at 10 µM [2] | AD38 Viral Load (CpAM/DMSO %) at 10 μM [2]
1 | O=C(Nc1cccc(-c2ccccc2)c1)c1ccc2c(c1)NC(=O)c1ccc(F)cc1S2 [Compound 1358] | 72% | 15% | 
2 | Cc1c(C(=O)NCCc2ccc(-c3ccccc3)cc2)ccc2c1NC(=O)c1ccccc1S2 [Compound 1495] | 77% | 9% | 
3 | O=C(NCCC1CCC(O)CC1)c1ccc2c(c1)NC(=O)c1ccccc1S2 (stereo not shown) [Compound 1204] | 97% | 2% | 
4 | O=C(NCCc1cncs1)c1ccc2c(c1)NC(=O)c1c(F)cccc1S2 [Compound 1598] | 93% | 61% | 
5 | CCN1c2ccc(C(=O)NCc3cnco3)cc2NC(=O)c2ccccc21 [Compound 1564] | 119% | 10% | 
6 | O=C(NCCc1ccc(-n2ccnc2)cc1)c1ccc2c(c1)NC(=O)c1ccccc1S2 [Compound 1248] | 106% | 3% | 
7 | COc1cccc(CCNC(=O)c2ccc3c(c2)NC(=O)c2ccccc2S3)c1 [Compound 1124] | 99% | 80% | 
8 | CN1c2ccc(C(=O)NCCc3cncnc3)cc2NC(=O)c2ccccc21 [Compound 1548] | 85% | 28% | 
9 | CC(=O)Nc1ccccc1CNC(=O)c1ccc2c(c1)NC(=O)c1ccccc1S2 [Compound 1253] | 103% | 15% | 
10 | O=C(NCCC1CCCO1)c1ccc2c(c1)NC(=O)c1ccccc1S2(=O)=O (stereo not shown) [Compound 1636] | 111% | 0% | 
11 | O=C(NCCc1cncs1)c1ccc2c(c1)NC(=O)c1ccccc1N2Cc1ccccc1 [Compound 1511] | 85% | 38% | 
12 | O=C(NCCC1CCCO1)c1ccc2c(c1)NC(=O)c1ccccc1S2 (stereo not shown) [Compound 1209] | 102% | 1% | 
13 | NC(=O)c1ccc2c(c1)NC(=O)c1ccccc1S2 [Compound 1525] | 85% | 78% | 
14 | COc1cccc(-c2cccc(NC(=O)c3ccc4c(c3)NC(=O)c3cc(F)ccc3S4)c2)c1 [Compound 1452] | 62% | 15% | 
15 | O=C(Nc1ncc(Cl)s1)c1ccc2c(c1)NC(=O)c1cc(F)ccc1S2 [Compound 1443] | 95% | 64% | 
16 | O=C(Nc1nc2ccc(F)cc2s1)c1ccc2c(c1)NC(=O)c1cc(F)ccc1S2 [Compound 1332] | 103% | 70% | 
17 | O=C(NCc1cncs1)c1ccc2c(c1)NC(=O)c1ccccc1[S+]2[O-] (stereo not shown) [Compound 1388] | 71% | 5% | 
18 | CC(C)c1ncsc1CNC(=O)c1ccc2c(c1)NC(=O)c1ccccc1S2 [Compound 1614] | 45% | 2% | 
19 | O=C(NCCc1ccc(-c2ccccc2)cc1)c1ccc2c(c1)NC(=O)c1cccc(F)c1S2 [Compound 1466] | 88% | 7% | 
20 | O=C1Nc2cc(S(=O)(=O)NCc3cncnc3)ccc2Sc2ccccc21 [Compound 1473] | 97% | 81% | 
21 | CC(C)(C)OC(=O)C(Cc1cncnc1)NC(=O)c1ccc2c(c1)NC(=O)c1cc(F)ccc1S2 (stereo not shown) [Compound 1346, Tert-Butyl 2-(2-fluoro-11-oxo-10, 11-dihydrodibenzo [b,f] [1,4]thiazepine-8-carboxamido)-3-(pyrimidin-5-yl) propanoate] | 97% |  | 105%
22 | O=C(Nc1nccs1)c1ccc2c(c1)NC(=O)c1ccccc1S2(=O)=O [Compound 1634] | 125% | 45% | 

Row | Structure (SMILES) | AD38 Viability Normalized Result (CPAM/DMSO %) at 10 μM [1] | activity at 10 µM [2] | AD38 Viral Load (CpAM/DMSO %) at 10 μM [2]
23 | CN(C)S(=O)(=O)c1ccc(CCNC(=O)c2ccc3c(c2)NC(=O)c2ccc(F)cc2S3)cc1 [Compound 1387] | 78% | 2% | 
24 | O=C(Nc1cccc(-c2ccccc2)c1)c1ccc2c(c1)NC(=O)c1c(F)cccc1S2 [Compound 1472] | 95% | 37% | 
25 | CCc1ccc(CNC(=O)c2ccc3c(c2)NC(=O)c2ccccc2S3)cc1 [Compound 1188] | 83% | 4% | 
26 | CCc1ccc(CCNC(=O)c2ccc3c(c2)NC(=O)c2ccccc2S3)cc1 [Compound 1185] | 0% | 1% | 
27 | Cc1ccccc1CCNC(=O)c1ccc2c(c1)NC(=O)c1ccccc1S2 [Compound 1158] | 120% | 37% | 
28 | O=C(NCCc1ccc(-c2ccccc2)cc1)c1ccc2c(c1)NC(=O)c1ccc(F)cc1S2 [Compound 1371] | 94% | 6% | 
29 | O=C(NCCc1cnc(-c2ccccc2)nc1)c1ccc2c(c1)NC(=O)c1cc(F)ccc1S2 [Compound 1343] | 91% | 8% | 
30 | O=C(Nc1ccncc1)c1cc2c(cc1F)Sc1ccccc1C(=O)N2 [Compound 1508] | 81% | 31% | 
31 | O=C(NCCc1cnco1)c1ccc2c(c1)NC(=O)c1cc(F)ccc1S2 [Compound 1417] | 75% | 11% | 
32 | O=C(NCc1ccc(OC(F)(F)F)cc1)c1ccc2c(c1)NC(=O)c1ccccc1S2 [Compound 1162] | 99% | 61% | 
33 | O=C(NCCO)c1ccc2c(c1)NC(=O)c1ccccc1S2 [Compound 1172] | 107% | 51% | 
34 | O=C1Nc2c(cc(F)c(C(=O)NCCc3cccnc3)c2F)Sc2ccccc21 [Compound 1531] | 96% | 53% | 
35 | CCN1c2ccc(C(=O)NCCc3cncnc3)cc2NC(=O)c2ccccc21 [Compound 1565] | 103% | 4% | 
36 | O=C(NCc1ccccc1O)c1ccc2c(c1)NC(=O)c1ccccc1S2 [Compound 1219] | 100% | 5% | 
37 | O=C(Nc1cccc(-c2ccccc2C(=O)O)c1)c1ccc2c(c1)NC(=O)c1cc(F)ccc1S2 [Compound 1435, 3′-(2-fluoro-11-oxo-10, 11-dihydrodibenzo [b,f] [1,4]thiazepine-8-carboxamido)-[1, 1′-biphenyl]-2-carboxylic acid] | 99% | 77% | 
38 | O=C(NCCc1cnco1)c1ccc2c(c1)NC(=O)c1ccccc1N2Cc1ccccc1 [Compound 1559] | 92% | 68% | 
39 | O=C(Nc1cncnc1)c1ccc2c(c1)NC(=O)c1cc(F)ccc1S2 [Compound 1328] | 105% | 54% | 
40 | O=C(NCCc1ccc(-n2nccn2)cc1)c1ccc2c(c1)NC(=O)c1ccccc1S2 [Compound 1256] | 102% | 1% | 
41 | O=C(NCc1cccc(OC(F)(F)F)c1)c1ccc2c(c1)NC(=O)c1ccccc1S2 [Compound 1203] | 89% | 3% | 
42 | O=C(NCc1cncnc1)c1ccc2c(c1)NC(=O)c1cc(F)ccc1S2 [Compound 1308] | 99% | 1% | 
43 | COc1ccc(CCNC(=O)c2ccc3c(c2)NC(=O)c2ccccc2S3)cc1 [Compound 1114] | 104% | 1% | 
44 | O=C(O)c1cccc(-c2cccc(NC(=O)c3ccc4c(c3)NC(=O)c3cc(F)ccc3S4)c2)c1 [Compound 1421, 3′-(2-fluoro-11-oxo-10, 11-dihydrodibenzo [b,f] [1,4]thiazepine-8-carboxamido)-[1, 1′-biphenyl]-3-carboxylic acid] | 95% | 78% | 
